Experimental data: PMC8306930, “A Comparative Analysis of the In Vitro Anticancer Activity of Iridium(III) {η^5-C5Me4R} Complexes with Variable R Groups” (International Journal of Molecular Sciences, 2021)

Assays:
B16 mouse melanoma cells [1] = test: CV (crystal violet) viability assay, B16; assay type: cell-based; conditions: B16, 72 h exposure, mean ± SD
Excerpt: (§1) The rat astrocytoma C6 cell line and murine melanoma B16 cell line were kindly gifted by Dr. L. Harhaji–Trajkovic, Institute for Biological Research “Sinisa Stankovic”—National Institute of Republic of Serbia (IBISS), and from Dr. Sinisa Radulovic (Institute for Oncology and Radiology of Serbia), respectively. Human colorectal (SW620 and HCT116), breast (MCF-7), and ovarian (A2780) cancer cell lines and non-malignant fibroblast cell line (MRC5) were purchased from the American Type Culture Collection (ATCC, Manassas, Virginia, USA). […] For viability assays, cells were seeded in listed densities/well: B16 and C6: 3 × 10^3; SW620: 9 × 10^3; A2780 and HCT116: 5 × 10^3; MCF-7: 8 × 10^3 and MRC5: 7 × 10^3. For flow cytometry, A2780 cells were seeded at 2 × 10^5 density/well in 6-well plates. Peritoneal macrophages were collected from the peritoneal cavity of C57BL/6 mice from the animal facility of IBISS by cavity lavage with ice-cold PBS. […] Macrophages were counted, seeded at 2 × 10^5 cells/well in 96-well plates for viability assay, and then left for 2 h to adhere. Before treatment, non-adherent cells were removed. The handling of animals and protocol for obtaining macrophages is in the agreement with the rules of the European Union and approved by the Institutional Animal Care and Use Committee at IBISS (No. 02-09/16).
(§2) Stock solutions of 1b, 1c, 1d, and 1e were prepared in ethanol at concentration of 20 mM and kept at −20 °C, while 10 mM stock solution of cisplatin was prepared in DMF just before the usage. Desired final concentrations were obtained by dilution in culture medium.
(§3) Cells were treated with various concentrations (up to 50 or 100 µM) of the above-mentioned complexes for 72 h. For the detection of mitochondrial respiration, cells were cultivated in the presence of MTT staining solution (0.5 mg/mL) for approximately 1 h at 37 °C. The dye was then discarded, and the formed formazan crystals (purple) were dissolved in DMSO. For an evaluation of viable attached cells, cells were fixed with 4% PFA for 10 min at room temperature, and subsequently stained for 15 min with 0.02% CV solution. […] The absorbance was measured with an automated microplate reader at 540 nm, with a reference wavelength of 670 nm. The IC50 values were calculated using a four-parameter logistic function and presented as mean ± SD from three independent experiments.

[2] = system: HCT116 human colorectal carcinoma cells; test: CV viability assay, HCT116; assay type: cell-based; conditions: HCT116, 72 h exposure, mean ± SD
Excerpt: as §1, §2, §3

[3] = system: MRC5 human fibroblast cells; test: MTT viability assay, MRC5; assay type: cell-based; conditions: MRC5, 72 h exposure, mean ± SD
Excerpt: as §1, §2, §3

[4] = system: MRC5 human fibroblast cells; test: CV viability assay, MRC5; assay type: cell-based; conditions: MRC5, 72 h exposure, mean ± SD
Excerpt: as §1, §2, §3

[5] = system: MCF-7 human breast cancer cells; test: CV viability assay, MCF-7; assay type: cell-based; conditions: MCF-7, 72 h exposure, mean ± SD
Excerpt: as §1, §2, §3

[6] = system: SW620 human colorectal adenocarcinoma cells; test: MTT viability assay, SW620; assay type: cell-based; conditions: SW620, 72 h exposure, mean ± SD
Excerpt: as §1, §2, §3

B16 mouse melanoma cells [7] = test: MTT viability assay, B16; assay type: cell-based; conditions: B16, 72 h exposure, mean ± SD
Excerpt: as §1, §2, §3

[8] = system: SW620 human colorectal adenocarcinoma cells; test: CV viability assay, SW620; assay type: cell-based; conditions: SW620, 72 h exposure, mean ± SD
Excerpt: as §1, §2, §3

C6 rat glioma cells [9] = test: MTT viability assay, C6; assay type: cell-based; conditions: C6, 72 h exposure, mean ± SD
Excerpt: as §1, §2, §3

[10] = system: HCT116 human colorectal carcinoma cells; test: MTT viability assay, HCT116; assay type: cell-based; conditions: HCT116, 72 h exposure, mean ± SD
Excerpt: as §1, §2, §3

C6 rat glioma cells [11] = test: CV viability assay, C6; assay type: cell-based; conditions: C6, 72 h exposure, mean ± SD
Excerpt: as §1, §2, §3

[12] = system: A2780 human ovarian cancer cells; test: MTT viability assay, A2780; assay type: cell-based; conditions: A2780, 72 h exposure, mean ± SD
Excerpt: as §1, §2, §3

[13] = Octanol/water partition coefficient, shake-flask method with UV-Vis; conditions: 21 °C, mean ± standard deviation
Experimental: (a) Octanol/water partition coefficients (Log Pow). Partition coefficients (Pow; IUPAC: KD partition constant), defined as Pow = corg/caq, where corg and caq are molar concentrations of the selected compound in the organic and aqueous phase, respectively, were determined by the shake-flask method and UV-Vis measurements. Deionized water and 1-octanol were vigorously stirred for 24 h, to enable saturation of both phases, then separated by centrifugation. A stock solution of the selected iridium compound (ca. 2 mg) was prepared by first adding acetone (50 μL, to help solubilization), followed by water-saturated octanol (2.5 mL). The solution was diluted with water-saturated octanol (ca. 1:3 v/v ratio, cIr ≈ 10^−4 M, so that 1.5 ≤ A ≤ 2.0 at λmax) and its UV-Vis spectrum was recorded (A^0org). An aliquot of the solution (Vorg = 1.2 mL) was transferred into a test tube and octanol-saturated water (Vorg = Vaq = 1.2 mL) was added. The mixture was vigorously stirred for 30 min at 21 °C then centrifuged (5000 rpm, 5 min). The UV-Vis spectrum of the organic phase was recorded (A^forg) and the partition coefficient was calculated as Pow = A^forg/(A^0org − A^forg) where A^0org and A^forg are the absorbance in the organic phase before and after partition with the aqueous phase, respectively. The wavelength of the maximum absorption of each compound (ca. 300 nm) was used for UV-Vis quantitation.

[14] = system: A2780 human ovarian cancer cells; test: CV viability assay, A2780; assay type: cell-based; conditions: A2780, 72 h exposure, mean ± SD
Excerpt: as §1, §2, §3

[15] = Stability in RPMI-1640 cell culture medium by UV-Vis; assay type: physicochemical; conditions: 37 °C, 24 h
[16] = Stability in D2O mixtures by 1H NMR; assay type: physicochemical; conditions: DMSO-d6/D2O 2:1, 72 h at 37 °C, 1H NMR, dimethyl sulfone standard
Experimental: Complexes were dissolved in acetone-d6/D2O 2:1 (1b,d), DMSO-d6/D2O 2:1 (2a–d and 3), or methanol-d4/D2O 2:1 (1c) ([Ir] ≈ 10^−3 mol L^−1), then dimethyl sulfone (0.05 mL, 0.164 mmol) was added as internal standard. The mixtures were filtered through a celite pad, and the filtrated solutions were analyzed by ^1H NMR spectroscopy.
The solutions were then stored for 72 h at 37 °C, and new NMR analyses were subsequently performed.

[17] = system: MCF-7 human breast cancer cells; test: MTT viability assay, MCF-7; assay type: cell-based; conditions: MCF-7, 72 h exposure, mean ± SD
Excerpt: as §1, §2, §3

A2780 cells [18] = conditions: A2780, IC50 doses, 48 h, AnnV/PI
Experimental: (§4) Experiments were carried out in three independent replicates.

A2780 cells [19] = test: Autophagosomes, acridine orange flow cytometry; assay type: cell-based, human; conditions: A2780, IC50 doses, 48 h, AO
Experimental: as §4

A2780 cells [20] = test: Intracellular nitric oxide, DAF-FM flow cytometry; assay type: cell-based, human; conditions: A2780, IC50 doses, 48 h, with respect to untreated cultures
Experimental: as §4

A2780 cells [21] = test: Senescence, FDG assay of beta galactosidase activity, flow cytometry; assay type: cell-based, human; conditions: A2780, IC50 doses, 48 h, in comparison to the control
Experimental: as §4

A2780 cells [22] = test: Cell proliferation, CFSE flow cytometry; assay type: cell-based, human; conditions: A2780, IC50 doses, 72 h of incubation
Experimental: as §4

A2780 cells [23] = test: ROS/RNS, DHR123 flow cytometry; assay type: cell-based, human; conditions: A2780, IC50 doses, 48 h, DHR123, with respect to untreated cultures
Experimental: as §4

A2780 cells [24] = test: Mitochondrial membrane potential, DiOC6(3) flow cytometry; assay type: cell-based, human; conditions: A2780, IC50 doses, 24 h, in comparison with untreated cells
Experimental: as §4

[25] = system: primary mouse peritoneal cells; test: Viability of primary mouse peritoneal cells (macrophages); assay type: cell-based
Excerpt: The rat astrocytoma C6 cell line and murine melanoma B16 cell line were kindly gifted by Dr. L. Harhaji–Trajkovic, Institute for Biological Research “Sinisa Stankovic”—National Institute of Republic of Serbia (IBISS), and from Dr. Sinisa Radulovic (Institute for Oncology and Radiology of Serbia), respectively. Human colorectal (SW620 and HCT116), breast (MCF-7), and ovarian (A2780) cancer cell lines and non-malignant fibroblast cell line (MRC5) were purchased from the American Type Culture Collection (ATCC, Manassas, Virginia, USA). […] For viability assays, cells were seeded in listed densities/well: B16 and C6: 3 × 10^3; SW620: 9 × 10^3; A2780 and HCT116: 5 × 10^3; MCF-7: 8 × 10^3 and MRC5: 7 × 10^3. For flow cytometry, A2780 cells were seeded at 2 × 10^5 density/well in 6-well plates. […] Macrophages were counted, seeded at 2 × 10^5 cells/well in 96-well plates for viability assay, and then left for 2 h to adhere. […]
Cells were treated with various concentrations (up to 50 or 100 µM) of the above-mentioned complexes for 72 h. […] The absorbance was measured with an automated microplate reader at 540 nm, with a reference wavelength of 670 nm. The IC50 values were calculated using a four-parameter logistic function and presented as mean ± SD from three independent experiments.

Compound | IC50 (B16 mouse melanoma cells [1]) [µM] | IC50 [2] [µM] | IC50 [3] [µM] | IC50 [4] [µM] | IC50 [5] [µM] | IC50 [6] [µM] | IC50 (B16 mouse melanoma cells [7]) [µM] | IC50 [8] [µM] | IC50 (C6 rat glioma cells [9]) [µM] | IC50 [10] [µM] | IC50 (C6 rat glioma cells [11]) [µM] | IC50 [12] [µM] | Log Pow [13] | IC50 [14] [µM] | Stability in RPMI-1640 cell culture medium [15] | Fraction of unaltered compound [16] [%] | IC50 [17] [µM] | Induction of apoptotic cell death (A2780 cells [18]) | High percentage of autophagosomes (A2780 cells [19]) | Increase of intracellular level of NO (A2780 cells [20]) [%] | other results
CCC[c-]1c(C)c(C)c(C)c1C.[Cl-].[Ir+3].[c-]1ccccc1-c1ccccn1 [Complex 2c, (1-(propyl)-2,3,4,5-tetramethylcyclopentadienyl)(2-phenylpyridine)iridium(III)chloride] | 8 ± 2 | 13 ± 1.1 | 3.7 ± 0.2 | 2.7 ± 0.1 | 17.2 ± 0.1 | 10.4 ± 0.4 | 6.7 ± 0.6 | 12.4 ± 1.5 | 4 ± 0.3 | 8 ± 0.6 | 5.9 ± 0.5 | 7.3 ± 0.6 | 1.5 ± 0.2 | 7.2 ± 0.8 | did not change | 98 | 12 ± 1.3 |  |  |  | 
Cc1c(C)c(C)[c-](-c2ccc(F)cc2)c1C.[Cl-].[Ir+3].[c-]1ccccc1-c1ccccn1 [Complex 2d, (1-(4-fluorobenzene)-2,3,4,5-tetramethylcyclopentadienyl)(2-phenylpyridine)iridium(III)chloride] | 1.7 ± 0.4 | 5.3 ± 1.3 | 2.4 ± 0.3 | 2.1 ± 0.6 | 6.8 ± 0.7 | 2 ± 0.1 | 1.2 ± 0.2 | 2 ± 0.2 | 2 ± 0.01 | 1.3 ± 0.3 | 2.1 ± 0.1 | 1.3 ± 0.1 | 1.3 ± 0.2 | 1.8 ± 0.1 | did not change | 97 | 2.5 ± 0.2 | modest induction | not recognized | 38 | Increase of beta galactosidase activity (A2780 cells [21]): 31%; Effect on cell proliferation (A2780 cells [22]): inhibition of cell proliferation; Increase of intracellular levels of H2O2, HOCl and ONOO− (in total) (A2780 cells [23]): 36.3%; Mitochondrial membrane hyperpolarization (A2780 cells [24]): 48.6%; Effect on viability of primary mouse peritoneal cells [25]: did not affect viability
tetramethylcyclopentadienyl)(2-phenylpyridine)iridium(III)chloride [Complex 2b] | 3 ± 0.1 | 7 ± 2 | 6.7 ± 0.2 | 6 ± 2 | 37 ± 3 | 2.6 ± 0.1 | 2.5 ± 0.2 | 2.9 ± 0.5 | 2.4 ± 0.3 | 8 ± 0.2 | 2.6 ± 0.1 | 5.5 ± 0.5 |  | 4.4 ± 0.6 |  |  | 8.6 ± 0.2 | modest induction | not recognized | 40.9 | Increase of beta galactosidase activity (A2780 cells [21]): 38.4%; Effect on cell proliferation (A2780 cells [22]): inhibition of cell proliferation; Increase of intracellular levels of H2O2, HOCl and ONOO− (in total) (A2780 cells [23]): 46.4%; Mitochondrial membrane hyperpolarization (A2780 cells [24]): 32.3%; Effect on viability of primary mouse peritoneal cells [25]: did not affect viability
